Test results as given in ChEMBL document CHEMBL4043226, “Design, synthesis and biological evaluation of benzamide and phenyltetrazole derivatives with amide and urea linkers as BCRP inhibitors” (Bioorg Med Chem Lett, 2017).

Tests used:
[1] = Cytotoxicity against human NCI-H460/MX20 cells after 72 hrs by MTT assay; format: cell-based; settings: NCI-H460/MX20, 72 h
[2] = Resistance index, ratio of mitoxantrone IC50 for human H460/MX20 cells to mitoxantrone IC50 for human H460 cells at 10 uM (reference value: 28.66)
[3] = Resistance index, ratio of mitoxantrone IC50 for human H460/MX20 cells to mitoxantrone IC50 for human H460 cells at 1 uM (reference value: 28.66)
[4] = Resistance index, ratio of mitoxantrone IC50 for human H460/MX20 cells to mitoxantrone IC50 for human H460 cells at 3 uM (reference value: 28.66)
[5] = tested on: NCI-H460; assay: Cytotoxicity against human H460 cells after 72 hrs by MTT assay; format: cell-based; settings: NCI-H460, 72 h
[6] = Inhibition of ABCG2 in human H460/MX20 cells assessed as potentiation of mitoxantrone induced antiproliferative activity by measuring mitoxantrone IC50 at 10 uM preincubated for 2 hrs followed by mitoxantrone addition measured after 72 hrs by MTT assay (reference value: 6.161 +/- 0.172 microM)
[7] = Inhibition of ABCG2 in human H460/MX20 cells assessed as potentiation of mitoxantrone induced antiproliferative activity by measuring mitoxantrone IC50 at 3 uM preincubated for 2 hrs followed by mitoxantrone addition measured after 72 hrs by MTT assay (reference value: 6.161 +/- 0.172 microM)
[8] = Inhibition of ABCG2 in human H460/MX20 cells assessed as potentiation of mitoxantrone induced antiproliferative activity by measuring mitoxantrone IC50 at 1 uM preincubated for 2 hrs followed by mitoxantrone addition measured after 72 hrs by MTT assay (reference value: 6.161 +/- 0.172 microM)
[9] = molecular target: T1, ABCG2 (BCRP) (Homo sapiens, UniProt Q9UNQ0); assay: Activation of ABCG2 (unknown origin) expressed in high five insect cell membrane vesicles assessed as induction of basal BCRP ATPase activity at 10 uM preincubated for 3 mins followed by ATP addition measured for 20 mins relative to control; settings: High Five insect cell membrane vesicles expressing ABCG2, read-out: FC
T1 sequence (Q9UNQ0 whole entry): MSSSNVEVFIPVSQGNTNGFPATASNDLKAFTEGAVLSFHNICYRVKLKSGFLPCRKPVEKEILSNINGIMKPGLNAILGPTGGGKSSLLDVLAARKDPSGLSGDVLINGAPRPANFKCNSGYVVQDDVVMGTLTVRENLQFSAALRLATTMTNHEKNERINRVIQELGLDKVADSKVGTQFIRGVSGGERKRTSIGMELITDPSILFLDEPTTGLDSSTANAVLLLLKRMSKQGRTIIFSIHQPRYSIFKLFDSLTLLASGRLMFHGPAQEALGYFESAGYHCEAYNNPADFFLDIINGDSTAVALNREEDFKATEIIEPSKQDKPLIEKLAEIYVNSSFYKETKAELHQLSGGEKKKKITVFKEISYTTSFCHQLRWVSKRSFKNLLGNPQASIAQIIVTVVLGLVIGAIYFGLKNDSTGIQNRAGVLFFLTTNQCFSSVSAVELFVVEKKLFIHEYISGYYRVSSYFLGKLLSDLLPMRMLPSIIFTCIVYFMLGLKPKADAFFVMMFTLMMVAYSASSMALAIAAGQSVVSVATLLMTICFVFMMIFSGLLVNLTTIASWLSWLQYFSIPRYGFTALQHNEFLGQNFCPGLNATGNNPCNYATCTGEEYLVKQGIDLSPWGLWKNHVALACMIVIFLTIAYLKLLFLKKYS

[10] = molecular target: T2, Broad substrate specificity ATP-binding cassette transporter ABCG2 (Homo sapiens, UniProt Q9UNQ0); assay: Inhibition of ABCG2 (unknown origin) expressed in high five insect cell membrane vesicles assessed as reduction in BCRP ATPase activity preincubated for 3 mins followed by ATP addition measured for 20 mins
T2 sequence (Q9UNQ0 whole entry): T1 sequence (Q9UNQ0 whole entry)

[11] = molecular target: T2, Broad substrate specificity ATP-binding cassette transporter ABCG2; assay: Inhibition of ABCG2 (unknown origin) expressed in high five insect cell membrane vesicles assessed as reduction in basal BCRP ATPase activity up to 30 uM preincubated for 3 mins followed by ATP addition measured for 20 mins relative to control

fold induction at 20 min, 10 µM [9] | inhibition (INH) [10] | fold change (FC) [11] | Structure (SMILES) | IC50 [1] [µM] | Ratio IC50 [2] | Ratio IC50 [3] | Ratio IC50 [4] | IC50 [5] [µM] | IC50 [6] [µM] | IC50 [7] [µM] | IC50 [8] [µM]
– | – | – | COc1cccc(-n2nnc(-c3ccccc3NC(=O)c3ccc([N+](=O)[O-])cc3)n2)c1 | > 100 | 1.43 | 2.72 | 1.8 | > 100 | 0.307 | – | –
– | – | – | COc1ccc(-n2nnc(-c3ccccc3NC(=O)c3ccc([N+](=O)[O-])cc3)n2)cc1 | 27.4 | 1.76 | 2.73 | 2.49 | 24.7 | – | – | –
– | – | – | COc1ccc(C(=O)Nc2ccccc2-c2nnn(-c3ccc(OC)cc3)n2)cc1 | > 100 | 2.29 | 3.47 | 2.35 | > 100 | – | – | –
– | – | – | COc1ccc(-n2nnc(-c3ccccc3NC(=O)Nc3ccc([N+](=O)[O-])cc3)n2)cc1 | 28.5 | 1.54 | 3.34 | 2.52 | 21.7 | – | – | –
– | – | – | O=C(Nc1ccc([N+](=O)[O-])cc1)Nc1ccccc1C(=O)Nc1ccc(C(F)(F)F)cc1 | > 100 | 2.12 | 3.31 | 2.81 | > 100 | – | – | –
– | – | – | COc1cccc(-n2nnc(-c3ccccc3NC(=O)c3ccc(N=[N+]=[N-])cc3)n2)c1 | 21.5 | 5.89 | 7.51 | 6.98 | 20.3 | – | – | –
– | – | – | COc1cccc(-n2nnc(-c3ccccc3NC(=O)c3ccccc3[N+](=O)[O-])n2)c1 | 44.7 | 5.12 | 8.74 | 6.14 | 38.9 | – | 1.32 | –
– | – | – | COc1cccc(-n2nnc(-c3ccccc3NC(=O)Nc3ccccc3[N+](=O)[O-])n2)c1 | > 100 | 4.1 | 5.45 | 4.55 | > 100 | – | – | 1.172
– | – | – | CCCc1ccc(NC(=O)c2ccccc2NC(=O)c2cccc([N+](=O)[O-])c2)cc1 | > 100 | 2.38 | 3.65 | 3.38 | > 100 | 0.512 | 0.727 | 0.785
– | – | – | COc1ccc(NC(=O)Nc2ccccc2-c2nnn(-c3ccc(OC)cc3)n2)cc1 | 57.4 | 1.56 | 2.06 | 1.78 | 52.5 | 0.355 | 0.382 | –
– | – | – | COc1cccc(-n2nnc(-c3ccccc3NC(=O)Nc3ccc(N=C=S)cc3)n2)c1 | > 100 | 2.56 | 7.05 | 3.1 | > 100 | 0.55 | – | 1.515
– | – | – | CCCc1ccc(NC(=O)c2ccccc2NC(=O)c2ccccc2[N+](=O)[O-])cc1 | > 100 | 7.7 | 11.75 | 9.36 | > 100 | – | – | –
– | – | – | COc1cccc(-n2nnc(-c3ccccc3NC(=O)c3ccc(NC(C)=O)cc3)n2)c1 | > 100 | 5.58 | 6.34 | 6.16 | > 100 | – | – | –
– | – | – | COc1cccc(-n2nnc(-c3ccccc3NC(=O)Nc3ccc(N)cc3)n2)c1 | > 100 | 1.76 | 3.9 | 2.66 | > 100 | – | 0.571 | –
– | – | – | CCCc1ccc(NC(=O)c2ccccc2NC(=O)c2ccc(OC)cc2)cc1 | > 100 | 7.97 | 13.1 | 10 | > 100 | – | 2.012 | 2.526
1.94 | Dose-dependent effect | – | COc1cccc(-n2nnc(-c3ccccc3NC(=O)Nc3ccc([N+](=O)[O-])cc3)n2)c1 | > 100 | 1.87 | 3.87 | 2.53 | > 100 | – | – | 0.832
– | – | – | CCCc1ccc(NC(=O)c2ccccc2NC(=O)Nc2ccccc2[N+](=O)[O-])cc1 | > 100 | 5.21 | 17.03 | 11.92 | > 100 | – | – | –
– | – | – | COc1cccc(-n2nnc(-c3ccccc3NC(=O)c3ccc(N=C=S)cc3)n2)c1 | 59 | 4.43 | 5.68 | 4.88 | 44.7 | – | – | 1.221
– | – | – | COc1cccc(-n2nnc(-c3ccccc3NC(=O)c3ccc(NC(=O)CBr)cc3)n2)c1 | > 100 | 1.32 | 2.81 | 2.07 | > 100 | – | – | –
– | – | – | COc1cccc(-n2nnc(-c3ccccc3NC(=O)Nc3ccc(NC(=O)CBr)cc3)n2)c1 | > 100 | 2.2 | 3.71 | 2.71 | > 100 | – | – | –
– | – | – | CCCc1ccc(NC(=O)c2ccccc2NC(=O)Nc2ccc(OC)cc2)cc1 | > 100 | 4.58 | 15.68 | 10.12 | > 100 | – | – | –
– | Dose-dependent effect | 0.52 | COc1cccc(-n2nnc(-c3ccccc3NC(=O)c3ccc(N)cc3)n2)c1 | > 100 | 1.39 | 2.55 | 2.28 | > 100 | – | – | –
3.55 | Dose-dependent effect | – | CCCc1ccc(NC(=O)c2ccccc2NC(=O)Nc2cccc([N+](=O)[O-])c2)cc1 | > 100 | 1.62 | 3.03 | 2.33 | > 100 | 0.348 | – | –
– | – | – | CCCc1ccc(C(=O)Nc2ccccc2-c2nnn(-c3cccc(OC)c3)n2)cc1 | 40.6 | 0.61 | 1.65 | 0.96 | 27 | – | 0.207 | –
– | – | – | COc1cccc(-n2nnc(-c3ccccc3NC(=O)Nc3ccc(NC(C)=O)cc3)n2)c1 | > 100 | 1.51 | 2.92 | 2.11 | > 100 | – | 0.454 | –
– | – | – | COc1cccc(-n2nnc(-c3ccccc3NC(=O)Nc3cccc([N+](=O)[O-])c3)n2)c1 | > 100 | – | – | – | > 100 | – | – | –
– | – | – | COc1cccc(-n2nnc(-c3ccccc3NC(=O)Nc3ccc(N=[N+]=[N-])cc3)n2)c1 | > 100 | 3.19 | 4.25 | 3.21 | > 100 | 0.685 | – | –
– | – | – | CCCc1ccc(NC(=O)c2ccccc2NC(=O)Nc2ccc(Br)cc2)cc1 | > 100 | 4.43 | 12.35 | 9.87 | > 100 | – | – | –
– | – | – | COc1cccc(-n2nnc(-c3ccccc3NC(=O)c3cccc([N+](=O)[O-])c3)n2)c1 | 25.4 | 4.03 | 8.38 | 6.47 | 19.9 | – | 1.39 | –
– | – | – | COc1ccc2c3c([nH]c2c1)[C@H](C=C(C)C)N1C(=O)[C@@H]2CCCN2C(=O)[C@@H]1C3 [FUMITREMORGIN] | – | 1.49 | 2.85 | 2.1 | – | 0.321 | – | –
